Assay results: patent publication US20230416248A1, “COMPOUNDS AND USES THEREOF” (Foghorn Therapeutics Inc., priority 2020, published 2023)

Target: T1, BRM (Homo sapiens, UniProt P51531)
T1 construct: made in house; host or cells: High Five insect cells
Experiment: ATPase catalytic activity of BRM, ADP-Glo in vitro biochemical assay
Settings: for IC50: 30 nM BRM, 400 μM ATP
Description: The ATPase catalytic activity of BRM or BRG-1 was measured by an in vitro biochemical assay using ADP-Glo™ (Promega, V9102). The ADP-Glo™ kinase assay is performed in two steps once the reaction is complete. The first step is to deplete any unconsumed ATP in the reaction. The second step is to convert the reaction product ADP to ATP, which will be utilized by the luciferase to generate luminesce and be detected by a luminescence reader, such as Envision.
The assay reaction mixture ([…]) contains 30 nM of BRM or BRG-1, 20 nM salmon sperm DNA (from Invitrogen, UfraPure™ Salmon Sperm DNA Solution, cat #15632011), and 400 μM of ATP in the ATPase assay buffer, which comprises of 20 mM Tris, pH 8, 20 mM MgCl2, 50 mM NaCl, 0.1% Tween-20, and 1 mM fresh DTT (Piercer™ DTT (Dithiothreitol), cat #20290). The reaction is initiated by the addition of the 2.5 μL ATPase solution to 2.5 μL ATP/DNA solution on low volume white Proxiplate-384 plus plate (PerkinElmer, cat #6008280) and incubates at room temperature for 1 hour. Then, following addition of 5 μL of ADP-Glo™ Reagent provided in the kit, the reaction incubates at room temperature for 40 minutes. Then, 10 μL of Kinase Detection Reagent provided in the kit is added to convert ADP to ATP, and the reaction incubates at room temperature for 60 minutes. Finally, luminescence measurement is collected with a plate-reading luminometer, such as Envision.

[1] = ATPase catalytic activity, ADP-Glo

T1 sequence (P51531 whole entry): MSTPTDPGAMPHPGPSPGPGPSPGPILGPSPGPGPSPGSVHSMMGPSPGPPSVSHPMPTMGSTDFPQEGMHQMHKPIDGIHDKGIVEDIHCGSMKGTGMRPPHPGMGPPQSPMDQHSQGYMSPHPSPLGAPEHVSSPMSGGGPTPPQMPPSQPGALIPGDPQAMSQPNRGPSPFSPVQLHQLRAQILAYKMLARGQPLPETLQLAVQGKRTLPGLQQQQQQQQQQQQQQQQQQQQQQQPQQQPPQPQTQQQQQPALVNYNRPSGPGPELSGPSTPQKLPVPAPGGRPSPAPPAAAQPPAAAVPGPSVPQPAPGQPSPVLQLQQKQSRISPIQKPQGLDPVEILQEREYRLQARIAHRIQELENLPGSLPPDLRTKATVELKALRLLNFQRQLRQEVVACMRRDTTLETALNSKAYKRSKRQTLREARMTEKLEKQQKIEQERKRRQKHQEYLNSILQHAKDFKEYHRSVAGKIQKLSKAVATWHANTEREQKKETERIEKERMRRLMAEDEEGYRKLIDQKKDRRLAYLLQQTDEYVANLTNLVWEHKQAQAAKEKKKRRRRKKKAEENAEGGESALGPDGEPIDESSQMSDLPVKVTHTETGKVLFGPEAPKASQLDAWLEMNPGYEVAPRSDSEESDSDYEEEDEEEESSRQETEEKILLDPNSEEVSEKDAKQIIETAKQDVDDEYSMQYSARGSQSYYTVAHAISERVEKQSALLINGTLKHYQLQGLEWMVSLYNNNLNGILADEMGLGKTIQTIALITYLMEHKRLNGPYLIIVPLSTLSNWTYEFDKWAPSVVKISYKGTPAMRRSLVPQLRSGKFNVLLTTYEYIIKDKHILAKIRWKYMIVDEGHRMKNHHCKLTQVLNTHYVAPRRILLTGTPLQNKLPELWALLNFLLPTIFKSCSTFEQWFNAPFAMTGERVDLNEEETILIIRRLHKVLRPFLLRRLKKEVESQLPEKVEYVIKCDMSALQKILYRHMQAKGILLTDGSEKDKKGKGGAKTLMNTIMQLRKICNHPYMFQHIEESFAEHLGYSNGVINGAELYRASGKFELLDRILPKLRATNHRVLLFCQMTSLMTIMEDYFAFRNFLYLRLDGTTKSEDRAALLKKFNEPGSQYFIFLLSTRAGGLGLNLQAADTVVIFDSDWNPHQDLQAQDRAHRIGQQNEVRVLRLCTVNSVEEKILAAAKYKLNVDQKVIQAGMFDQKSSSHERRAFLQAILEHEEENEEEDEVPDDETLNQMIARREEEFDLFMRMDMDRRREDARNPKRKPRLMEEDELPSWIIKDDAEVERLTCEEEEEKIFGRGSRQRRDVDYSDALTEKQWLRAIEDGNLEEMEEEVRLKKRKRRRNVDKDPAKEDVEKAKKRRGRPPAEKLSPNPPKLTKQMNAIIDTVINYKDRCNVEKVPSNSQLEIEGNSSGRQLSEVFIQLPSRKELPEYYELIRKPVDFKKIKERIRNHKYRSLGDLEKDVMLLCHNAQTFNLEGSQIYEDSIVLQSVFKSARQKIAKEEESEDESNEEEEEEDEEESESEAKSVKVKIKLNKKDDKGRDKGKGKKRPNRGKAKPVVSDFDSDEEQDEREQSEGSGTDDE

Row | SMILES | IC50 [1] [nM] | Ratio* (ratio of BRG1 IC50 to BRM IC50) | IC50 (ADP-Glo ATPase assay) [nM] | Ratio* (ratio BRG1 IC50 / BRM IC50)
1 | C[C@@H]1CN(c2cccc(-c3ccc4cnc(CNC(=O)c5ccc6c(c5)S(=O)(=O)CC[C@H](C(F)F)O6)cc4n3)n2)C[C@H](C)O1 [Compound 582] | 1240 | 4.05 | – | –
2 | CC[C@@H]1COCc2ccc(C(=O)NCc3cc4nc(-c5cccc(N6C[C@@H](C)O[C@@H](C)C6)n5)ccc4cn3)cc2S1(=O)=O [Compound 359] | – | 1.00 | – | –
3 | C[C@@H]1CN(c2cccc(-c3ccc4cnc(CNC(=O)c5cc(C6(C)CC6)c6c(c5)S(=O)(=O)CCOC6)cc4n3)n2)C[C@H](C)O1 [Compound 351] | – | 1.00 | – | –
4 | C[C@@H]1CCS(=O)(=O)c2cc(C(=O)NCc3cc4nc(-c5cccc(N6C[C@@H](C)O[C@@H](C)C6)n5)ccc4cn3)cc(Cl)c2O1 [Compound 505] | 539 | 9.28 | – | –
5 | Cc1cc(C(=O)NCc2cc3nc(-c4cccc(N5C[C@@H](C)O[C@@H](C)C5)n4)ccc3cn2)cc2c1COC[C@@H](C)S2(=O)=O [Compound 462] | 1720 | 2.92 | – | –
6 | CC[C@H]1COCc2ccc(C(=O)NCc3cc4nc(-c5cccc(N6C[C@@H](C)O[C@@H](C)C6)n5)ccc4cn3)cc2S1(=O)=O [Compound 360] | 974 | 5.14 | – | –
7 | C[C@@H]1CN(c2cccc(-c3ccc4cnc(CNC(=O)c5ccc6c(c5)S(=O)(=O)CCC(C)(C)O6)cc4n3)n2)C[C@H](C)O1 [Compound 559] | 3930 | 1.27 | – | –
8 | CC[C@H]1CCS(=O)(=O)c2cc(C(=O)NCc3cc4nc(-c5cccc(N6C[C@@H](C)O[C@@H](C)C6)n5)ccc4cn3)ccc2O1 [Compound 584] | 793 | 6.31 | – | –
9 | CN1CC[C@@H](Oc2cccc(-c3ccc4cnc(CNC(=O)c5ccc6c(c5)S(=O)(=O)CCOC6)cc4n3)n2)C1 [Compound 328] | 843 | 5.93 | – | –
10 | O=C(NCc1cc2nc(N3C(=O)Cc4ccccc43)ccc2cn1)c1ccc2c(c1)S(=O)(=O)CCOC2 [Compound 356] | 3310 | 1.51 | – | –
11 | CC1CN(c2cccc(-c3ccc4cnc(CNC(=O)c5ccc6c(c5)S(=O)(=O)C(C)COC6C)cc4n3)n2)CC(C)O1 (stereo not drawn) [Compound 535] | 637 | 7.84 | – | –
12 | O=C(NCc1cc2nc(-n3cccc(N4CCOCC4)c3=O)ccc2cn1)c1ccc2c(c1)S(=O)(=O)CCOC2 [Compound 401] | 1320 | 3.79 | – | –
13 | C[C@@H]1CN(c2cccc(-c3ccc4cnc(CNC(=O)c5ccc6c(c5)S(=O)(=O)CCO[C@H]6C5CC5)cc4n3)n2)C[C@H](C)O1 [Compound 459] | 192 | 25.98 | – | –
14 | O=C(NCc1cc2nc(N3CCc4nccnc4C3)ccc2cn1)c1ccc2c(c1)S(=O)(=O)CCOC2 [Compound 546] | 1820 | 2.75 | – | –
15 | CO[C@H](C)c1ccc2c(n1)N(c1ccc3cnc(CNC(=O)c4ccc5c(c4)S(=O)(=O)CCOC5)cc3n1)CCC2 [Compound 562] | 425 | 11.77 | – | –
16 | CC1CN(c2cccc(-c3ccc4cnc(CNC(=O)c5cnc6c(c5)S(=O)(=O)CCC5CC65)cc4n3)n2)CC(C)O1 (stereo not drawn) [Compound 579] | – | 4.40 | – | –
17 | O=C(NCc1cc2nc(N3CCCc4ccc(C(F)F)nc43)ccc2cn1)c1ccc2c(c1)S(=O)(=O)CCOC2 [Compound 563] | – | 16.52 | – | –
18 | CCOc1cc(C)cc(-c2ccc3cnc(CNC(=O)c4ccc5c(c4)S(=O)(=O)[C@@H](C)COC5)cc3n2)n1 [Compound 417] | 253 | 19.79 | – | –
19 | C[C@@H]1CN(c2cccc(-c3ccc4cnc(CNC(=O)c5ccc6c(c5)S(=O)(=O)[C@@H](C)CC6)cc4n3)n2)C[C@H](C)O1 [Compound 363] | 206 | 24.25 | – | –
20 | C[C@@H]1CN(c2cccc(-c3ccc4cnc(CNC(=O)c5ccc6c(c5)S(=O)(=O)[C@@H](C)CO[C@@H]6C)cc4n3)n2)C[C@H](C)O1 [Compound 517] | 429 | 11.66 | – | –
21 | COc1ccc(C(C)(F)F)cc1-c1ccc2cnc(CNC(=O)c3ccc4c(c3)S(=O)(=O)CCOC4)cc2n1 [Compound 368] | – | 1.00 | – | –
22 | COc1c(-c2ccc3cnc(CNC(=O)c4ccc5c(c4)S(=O)(=O)CCOC5)cc3n2)cccc1C(F)F [Compound 343] | 1350 | 3.71 | – | –
23 | Cc1cc(C(=O)NCc2cc3nc(-c4cccc(N5C[C@@H](C)O[C@@H](C)C5)n4)ccc3cn2)cc2c1O[C@H](C)CCS2(=O)=O [Compound 541] | 131 | 38.11 | – | –
24 | C[C@@H]1CN(c2cccc(-c3ccc4cnc(CNC(=O)c5cc(Cl)c6c(c5)S(=O)(=O)[C@H](C)CCO6)cc4n3)n2)C[C@H](C)O1 [Compound 486] | 1160 | 4.29 | – | –
25 | C[C@@H]1CN(c2cccc(-c3ccc4cnc(CNC(=O)c5ccc6c(c5)S(=O)(=O)C5(CC6)CC5)cc4n3)n2)C[C@H](C)O1 [Compound 531] | – | 28.30 | – | –
26 | C[C@@H]1CN(c2cccc(-c3ccc4cnc(CNC(=O)c5cccc(S(=O)(=O)C6CC6)c5)cc4n3)n2)C[C@H](C)O1 [Compound 371] | 196 | 25.45 | – | –

Continued, values first:

Row | IC50 [1] [nM] | Ratio* (ratio of BRG1 IC50 to BRM IC50) | IC50 (ADP-Glo ATPase assay) [nM] | Ratio* (ratio BRG1 IC50 / BRM IC50) | SMILES
27 | 673 | 7.43 | – | – | CO[C@@H](c1ccc2c(n1)N(c1ccc3cnc(CNC(=O)c4ccc5c(c4)S(=O)(=O)CCOC5)cc3n1)CCC2)C1CC1 [Compound 663]
28 | – | – | 606 | 8.25 | O=C(NCc1cc2nc(-c3ccc(OC(F)F)cn3)ccc2cn1)c1ccc2c(c1)S(=O)(=O)CCOC2 [Compound 849]
29 | 484 | 10.33 | – | – | C[C@@H]1CN(c2cccc(-c3ccc4cnc(CNC(=O)c5ccc6c(c5)S(=O)(=O)[C@H](C)CO6)cc4n3)n2)C[C@H](C)O1 [Compound 684]
30 | – | – | – | 1.00 | COCCN(c1ccnc(C2CC2)n1)c1ccc2cnc(CNC(=O)c3ccc4c(c3)S(=O)(=O)CCOC4)cc2n1 [Compound 839]
31 | – | – | – | 1.00 | O=C(NCc1cc2nc(C34CC3CCc3cccnc34)ccc2cn1)c1ccc2c(c1)S(=O)(=O)CCOC2 (stereo not drawn) [Compound 762]
32 | – | – | 1660 | 3.02 | COCCN(c1cc(C2CC2)ccn1)c1ccc2cnc(CNC(=O)c3ccc4c(c3)S(=O)(=O)CCOC4)cc2n1 [Compound 829]
33 | – | – | 2320 | 2.15 | COCCN(c1ccc(C2CC2)cn1)c1ccc2cnc(CNC(=O)c3ccc4c(c3)S(=O)(=O)CCOC4)cc2n1 [Compound 833]
34 | 1750 | 2.86 | – | – | CO[C@H](c1ccc2c(n1)N(c1ccc3cnc(CNC(=O)c4ccc5c(c4)S(=O)(=O)CCOC5)cc3n1)CCC2)C1CC1 [Compound 664]
35 | 884 | 5.66 | – | – | O=C(NCc1cc2nc(-c3cccc4c3CN(CC(F)F)CC4)ccc2cn1)c1ccc2c(c1)S(=O)(=O)CCOC2 [Compound 675]
36 | 2230 | 2.24 | – | – | COC1Cc2cccnc2N(c2ccc3cnc(CNC(=O)c4ccc5c(c4)S(=O)(=O)CCOC5)cc3n2)C1 (stereo not drawn) [Compound 633]
37 | – | – | 3200 | 1.56 | Cn1cccc(-c2ccc3cnc(CNC(=O)c4ccc5c(c4)S(=O)(=O)CCOC5)cc3n2)c1=O [Compound 826]
38 | – | – | – | 1.00 | O=C(NCc1cc2cc(N3CCOc4cc(C5CC5)cnc43)ncc2cn1)c1ccc2c(c1)S(=O)(=O)CCOC2 [Compound 811]
39 | 1190 | 4.19 | – | – | C[C@@H]1CN(c2cccc(-c3ccc4cnc(CNC(=O)c5cc(C6CCC6)c6c(c5)S(=O)(=O)CCOC6)cc4n3)n2)C[C@H](C)O1 [Compound 631]
40 | 3780 | 1.32 | – | – | COCCN1CCc2cccc(-c3ccc4cnc(CNC(=O)c5ccc6c(c5)S(=O)(=O)CCOC6)cc4n3)c2C1 [Compound 674]
41 | – | – | 188 | 26.60 | CS(=O)(=O)c1cc(C(=O)NCc2cc3nc(N4CCCc5ccc(C6CC6)nc54)ccc3cn2)cnc1C(F)F [Compound 721]
42 | 4000 | 1.25 | – | – | O=C(NCc1cc2nc(-c3cccc4c3CN(C3COC3)CC4)ccc2cn1)c1ccc2c(c1)S(=O)(=O)CCOC2 [Compound 671]
